Experiments:
[1] = in vivo; details: male, BALB/c, mouse
Protocol: The study was performed by Bienta (www.bienta.net). Study design, animal selection, handling, and treatment were all in accordance with the Enamine PK study protocols and Institutional Animal Care and Use Guidelines. Animal treatment and plasma samples preparation were conducted by the Animal Laboratory personnel at Enamine/Bienta. […] The animals were randomly assigned to the treatment groups before the pharmacokinetic study; all animals were fasted for 4 h before dosing. […] Each of the time point treatment group included four animals. There was also a control group of two animals. […] Dosing volumes of compounds or vehicle was 5 mL/kg. Mice were injected iv with 2,2,2-tribromoethanol at the dose of 150 mg/kg prior to drawing the blood. Blood collection was performed from the orbital sinus in microtainers containing K2EDTA. Animals were sacrificed by cervical dislocation after the blood sample collection. All samples were immediately processed, flash-frozen, and stored at −70 °C until subsequent analysis. […] After mixing by pipetting and centrifuging for 4 min at 6000 rpm, 0.5–1 μL of each supernatant was analyzed by HPLC-MS/MS on an API 3000 PE instrument.

[2] = biological target: human GPR84 (Homo sapiens, UniProt Q9NQS5); test: GPR84 counterscreen, cAMP assay; type: cell-based; details: 10 μM
Protocol: Counter screening against FFA1, FFA2 , FF A4 and GPR84 […]
(100 ng/mL) overnight to induce receptor expressi on. […]
Counter screening for GPR84 was carried out using a cAMP assay. Flp -In T-Re x 293 cells generated to stably express human GPR84 tagged at is C-terminal with Gia were first treated with doxycycline […]
HT R-FRET cAMP assay (CisBio) according to the manufacturer’s protocol and measured using an Envision plate reader (PerkinElmer). For these experiments, 5000 cells were used per well in a low volume 384-well plate and compounds were tested against their ability to inhibit the cAMP response to 1 µM forskolin for 45 min. TUG-1985 was used as reference agonist. […]

[3] = biological target: T1, human FFA1 (Homo sapiens, UniProt O14842); test: FFA1 counterscreen, arrestin BRET assay; type: cell-based; details: 10 μM
T1 construct: expressed in transfected cells; host or cells: HEK293T, transient co-transfection
Protocol: (§1) Counter screening against FFA1, FFA2 , FF A4 and GPR84
(§2) Counter screening against FFA1 and FFA4 was carried out using a modified version of a previously described bioluminescence resonance energy transfer (BRET) designed to assess recruitment of b-ar r estin-2 to each receptor.2 Briefly, HEK293T cells were co-transfected with plasmids en coding either human FFA1 or human FFA4 tagged at their C -termini with eYFP and with a plasmid encoding b-ar r estin-2 tagged at its N-terminal with Nanoluciferase. 24 h post transfection cells were seeded into black with clear bottom 96-well plates that had been coated with poly-D-lysine. Cells were then cultured a further 24 h prior to experiments. Cells were then washed twice with Hank’s Balanced salt solution supplemented with 10 mM HEPES (HBSSH) then incubated at 37 °C in HBSSH for 30 min prior to running the assay. The Nluc substrate, coelenterazine h was then added to a f inal concentration of 5 µM and cells were incubated at 37 °C for 10 min prior to adding test agonists. Following a further 5 min incubation, luminescent emission at 475 nm and 535 nm was measured using a Pherastar FS reader (BMG Labtech, Aylesbury, UK) pla te reader set for bottom plate optics. The BRET ratio was then calculated as 535/475 emissions and all BRET ratio values were normalized against the maxima l BRET ratio obtained using reference agonists for the respective receptors (TUG -891 for FFA4, TUG-770 for FFA1). For antagonism studies, the same protocol was used, however the antagonist was added 15 min prior to the addition of an EC 80 concentration of the reference agonist for each receptor. […]

[4] = biological target: T2, human FFA4 (Homo sapiens, UniProt Q5NUL3); test: FFA4 counterscreen, arrestin BRET assay; type: cell-based; details: 10 μM
T2 construct: expressed in transfected cells; host or cells: HEK293T, transient co-transfection
T2 sequence (Q5NUL3 1-361): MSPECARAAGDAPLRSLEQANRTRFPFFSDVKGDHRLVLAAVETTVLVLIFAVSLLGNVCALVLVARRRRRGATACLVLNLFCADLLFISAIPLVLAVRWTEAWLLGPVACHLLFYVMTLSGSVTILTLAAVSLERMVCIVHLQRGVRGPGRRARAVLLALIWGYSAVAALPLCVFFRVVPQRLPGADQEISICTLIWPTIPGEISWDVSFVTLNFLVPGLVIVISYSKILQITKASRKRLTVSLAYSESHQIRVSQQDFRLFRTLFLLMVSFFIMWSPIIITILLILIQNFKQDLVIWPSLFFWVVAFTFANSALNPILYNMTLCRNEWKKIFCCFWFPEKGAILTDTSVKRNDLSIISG
Protocol: as §1, §2

[5] = biological target: T3, mFFA3 (Mus musculus, UniProt Q3UFD7); test: cAMP assay, mFFA3; type: cell-based; set-up: expressed in transfected cells; host or cells: HEK293 Flp-In T-REx, doxycycline-induced; details: for loss of potency from human to rodent species: hFFA3 vs rFFA3 and mFFA3, cAMP
T3 sequence (Q3UFD7 1-319): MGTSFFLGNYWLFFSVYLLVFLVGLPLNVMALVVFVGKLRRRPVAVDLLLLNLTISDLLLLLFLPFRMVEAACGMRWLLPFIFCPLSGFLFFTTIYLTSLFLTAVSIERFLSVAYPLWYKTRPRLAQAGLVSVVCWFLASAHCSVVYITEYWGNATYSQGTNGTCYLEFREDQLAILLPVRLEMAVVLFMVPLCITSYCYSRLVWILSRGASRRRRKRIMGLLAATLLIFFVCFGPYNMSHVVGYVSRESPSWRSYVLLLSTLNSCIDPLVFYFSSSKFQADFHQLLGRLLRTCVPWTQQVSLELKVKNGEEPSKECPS
Protocol: With several compounds with improved properties in hand, we wished to investigate the suitability of the compounds as tools for in vivo studies in rodents. Because of the moderate potency and low solubility associated with this series, it has been presumed that they are poorly suited as in vivo tools.
HEK293 Flp-In T-Rex cells stably transfected with FFA3-eYFP receptors were incubated overnight with doxycycline to induce expression, then harvested, and cryopreserved. On the day of each experiment, cells were thawed and resuspended in stimulation buffer. Assays were carried out using a 384-well plate format with 3000 cells/well using the CisBio cAMP GS dynamic kit as per manufacturer’s protocol. Compounds were tested for the ability to inhibit 0.3 μM forskolin-induced cAMP production after co-incubation for 1 h. Reactions were measured using a PHERAstar FS plate reader (BMGLabtech, Aylesbury, UK).

T1 sequence (O14842 whole entry): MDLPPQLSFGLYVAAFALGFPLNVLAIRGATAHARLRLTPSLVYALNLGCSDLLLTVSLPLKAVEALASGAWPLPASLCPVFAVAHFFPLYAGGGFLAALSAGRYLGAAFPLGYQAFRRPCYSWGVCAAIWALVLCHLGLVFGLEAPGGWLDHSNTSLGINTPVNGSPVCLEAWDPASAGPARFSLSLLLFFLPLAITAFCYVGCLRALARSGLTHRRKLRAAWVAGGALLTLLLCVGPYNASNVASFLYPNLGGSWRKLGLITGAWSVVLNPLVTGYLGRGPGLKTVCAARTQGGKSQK
Chain of human GPR84 (Q9NQS5 whole entry): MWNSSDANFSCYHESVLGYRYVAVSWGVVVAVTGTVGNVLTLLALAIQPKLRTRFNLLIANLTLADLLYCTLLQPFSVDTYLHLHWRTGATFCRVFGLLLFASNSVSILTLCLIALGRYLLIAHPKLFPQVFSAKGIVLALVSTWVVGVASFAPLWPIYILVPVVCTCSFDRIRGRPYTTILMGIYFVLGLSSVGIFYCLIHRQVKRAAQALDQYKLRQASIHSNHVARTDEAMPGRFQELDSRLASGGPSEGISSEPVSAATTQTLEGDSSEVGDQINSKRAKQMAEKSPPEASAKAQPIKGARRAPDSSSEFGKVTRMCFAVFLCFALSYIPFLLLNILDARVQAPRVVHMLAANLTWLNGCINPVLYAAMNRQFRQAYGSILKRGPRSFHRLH

Row | SMILES | Vd at 24 h ([1]; iv, 5 mg/kg) [L/kg] | clearance at 24 h ([1]; iv, 5 mg/kg) [mL/min/kg] | half-life at 24 h ([1]; iv, 5 mg/kg) [min] | AUC(0-inf) at 24 h ([1]; po, 10 mg/kg) [ng·h/mL] | Cmax at 24 h ([1]; po, 10 mg/kg) [ng/mL] | Tmax at 24 h ([1]; po, 10 mg/kg) [min] | bioavailability at 24 h ([1]; po, 10 mg/kg) [%] | half-life at 24 h ([1]; po, 10 mg/kg) [min] | GPR84, agonist, cAMP assay [2] [%] | activity at GPR84 [2] | activity at FFA1 [3] | activity at FFA4 [4] | loss of potency from human to rodent species [5] | cAMP pEC50 (mFFA3) [5] | half-life ([1]; iv, 5 mg/kg) [min]
1 | CC1=C(C(=O)Nc2ccccc2C)C(c2ccco2)C2=C(CCCC2=O)N1 (stereo not drawn) [Compound 1, 4-(Furan-2-yl)-2-methyl-5-oxo-N-(o-tolyl)-1,4,5,6,7,8-hexahydroquinoline-3-carboxamide, reference compound] | 0.759 | 8.45 | 62.2 | 14400 | 7470 | 15 | 73 | 89.7 | 1±7 | No significant activity | No significant activity | No significant activity | 3–10 fold | 5.42 ± 0.04 | –
2 | CC1=C(C(=O)Nc2cc(Cl)ccc2Cl)C(c2ccco2)C2=C(CCCC2=O)N1 (stereo not drawn) [Compound 16, reference compound] | 0.629 | 19.6 | 22.3 | 7050 | 5740 | 30 | 88 | 60.8 | 2±4 | No significant activity | No significant activity | No significant activity | 3–10 fold | 5.88 ± 0.05 | 20
3 | CCCC1C(C(=O)Nc2cc(Cl)ccc2Cl)=C(C)NC2=C1C(=O)CCC2 (stereo not drawn) [Compound 57, N-(2,5-Dichlorophenyl)-2-methyl-5-oxo-4-propyl-1,4,5,6,7,8-hexahydroquinoline-3-carboxamide] | 1.15 | 70.3 | 11.4 | 563 | 561 | 30 | 36 | 63.5 | 1±4 | No significant activity | No significant activity | No significant activity | – | – | –
4 | CC1=C(C(=O)Nc2cc(Cl)ccc2Cl)C(C2CCCC2)C2=C(CCCC2=O)N1 (stereo not drawn) [Compound 63, 4-Cyclopentyl-N-(2,5-dichlorophenyl)-2-methyl-5-oxo-1,4,5,6,7,8-hexahydroquinoline-3-carboxamide] | 1.11 | 20.3 | 37.8 | 5420 | 3800 | 15 | 66 | 51.8 | 0±1 | No significant activity | No significant activity | No significant activity | – | 5.96 ± 0.04 | –

Reference: publication PMC7307922 (Journal of Medicinal Chemistry, 2020)
